This note sets out measurements from patent US20080242663A1, “NOVEL PYRIMIDINE DERIVATIVES 698” (ASTRAZENECA AB, priority 2007, published 2008).

Each structure is given as a SMILES string.

This test addresses T1, recombinant EphB4 (Homo sapiens, UniProt P54760).
T1 construct: amino acids 563-987; Swiss-Prot Acc; No. P54760; purchased ProQinase GmbH 0178-0000-3
T1 sequence (P54760 563-987): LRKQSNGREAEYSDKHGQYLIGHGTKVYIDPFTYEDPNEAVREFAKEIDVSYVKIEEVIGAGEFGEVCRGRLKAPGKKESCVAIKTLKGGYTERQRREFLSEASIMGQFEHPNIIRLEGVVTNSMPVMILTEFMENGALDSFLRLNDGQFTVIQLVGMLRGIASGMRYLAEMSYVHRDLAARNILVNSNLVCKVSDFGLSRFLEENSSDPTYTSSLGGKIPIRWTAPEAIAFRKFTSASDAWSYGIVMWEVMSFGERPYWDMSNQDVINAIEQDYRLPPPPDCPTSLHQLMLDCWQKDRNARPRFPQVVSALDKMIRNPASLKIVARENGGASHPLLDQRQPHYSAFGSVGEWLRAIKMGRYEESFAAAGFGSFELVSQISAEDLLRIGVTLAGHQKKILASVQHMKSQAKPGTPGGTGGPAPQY
The experiment in a line: In vitro EphB4 enzyme assay (Alphascreen). Format: biochemical. The essentials:
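Recombinant EphB4 phosphorylated biotin-poly-GAT with Mg-ATP for 1 hr at room temperature; EDTA stop, then Alphascreen donor/acceptor (anti-phosphotyrosine) beads for 20 hrs in the dark. After minimum subtraction, signal plotted against compound concentration to derive IC50.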
A general note: In Alpha technology, singlet oxygen from a donor bead excites a nearby acceptor bead.
On to `CN1CCN(Cc2cc(Nc3nccc(N(C)c4ccc(F)c(Cl)c4F)n3)cc(N3CCOCC3)c2)CC1` [Example 2.18, N′-(3-chloro-2,4-difluoro-phenyl)-N′-methyl-N-[3-[(4-methylpiperazin-1-yl)methyl]-5-morpholin-4-yl-phenyl] pyrimidine-2,4-diamine], for which the IC50 (commonly the concentration at which inhibition is half-maximal) amounted to 0.0461 µM.

Take `CCOCCOc1cc(Nc2nccc(N(C)c3cc(CO)ccc3C)n2)cc(N2CCOCC2)c1` [Example 17.7, [3-[[2-[[3-(2-ethoxyethoxy)-5-morpholin-4-yl-phenyl]amino]pyrimidin-4-yl]-methyl-amino]-4-methyl-phenyl]methanol]: the IC50 is 0.639 µM.

For `CN(c1cc(Cl)cc(CO)c1)c1ccnc(Nc2cc(N3CCOCC3)cc(N3CCOCC3)c2)n1` [Example 10.20, [3-chloro-5-[[2-[(3,5-dimorpholin-4-ylphenyl)amino]pyrimidin-4-yl]-methyl-amino]phenyl]methanol], the IC50 amounted to 0.338 µM. The result for `CCN(C)C(=O)c1cc(Nc2nccc(N(C)c3cc(CO)ccc3C)n2)cc(N2CCOCC2)c1` [Example 18.4, N-ethyl-3-[[4-[[5-(hydroxymethyl)-2-methyl-phenyl]-methyl-amino]pyrimidin-2-yl]amino]-N-methyl-5-morpholin-4-yl-benzamide] reads 0.0753 µM; that for `COc1ccccc1N(C)c1ccnc(Nc2cc(N3CCOCC3)cc(N3CCOCC3)c2)n1` [Example 10.12, N-(3,5-dimorpholin-4-ylphenyl)-N′-(2-methoxyphenyl)-N′-methyl-pyrimidine-2,4-diamine], 0.107 µM; that for `COCCNC(=O)c1cc(Nc2nccc(N(C)c3cccc(Cl)c3)n2)cc(N2CCOCC2)c1` [Example 19.18, 3-[[4-[(3-chlorophenyl)-methyl-amino]pyrimidin-2-yl]amino]-N-(2-methoxyethyl)-5-morpholin-4-yl-benzamide], 0.614 µM.

Consider `C[C@@H](CO)NC(=O)c1cc(Nc2nccc(N(C)c3cccc(Cl)c3)n2)cc(N2CCOCC2)c1` [Example 19.21, 3-[[4-[(3-chlorophenyl)-methyl-amino]pyrimidin-2-yl]amino]-N-[(2S)-1-hydroxypropan-2-yl]-5-morpholin-4-yl-benzamide], for which the IC50 was 0.527 µM.

`Cc1ccc(CO)cc1N(C)c1ccnc(Nc2cc(CO)cc(N3CCOCC3)c2)n1` [Example 7.13, [3-[[4-[[5-(hydroxymethyl)-2-methyl-phenyl]-methyl-amino]pyrimidin-2-yl]amino]-5-morpholin-4-yl-phenyl]methanol]: the IC50 was 0.0326 µM. Next, `CN(c1cccc(Cl)c1)c1ccnc(Nc2cc(C(=O)NCC3CC3)cc(N3CCOCC3)c2)n1` [Example 19.16, 3-[[4-[(3-chlorophenyl)-methyl-amino]pyrimidin-2-yl]amino]-N-(cyclopropylmethyl)-5-morpholin-4-yl-benzamide]: 1.97 µM. The result for `CN(c1ccc(Cl)c(F)c1)c1ccnc(Nc2cc(N3CCOCC3)cc(N3CCOCC3)c2)n1` [Example 15.16, N′-(4-chloro-3-fluoro-phenyl)-N-(3,5-dimorpholin-4-ylphenyl)-N′-methyl-pyrimidine-2,4-diamine] reads 0.634 µM. Take `CN(c1ccc(Cl)c(Cl)c1)c1ccnc(Nc2cc(N3CCOCC3)cc(N3CCOCC3)c2)n1` [Example 10.11, N′-(3,4-dichlorophenyl)-N-(3,5-dimorpholin-4-ylphenyl)-N′-methyl-pyrimidine-2,4-diamine]: the half-inhibitory concentration (IC50) was found to be 0.66 µM. As to `CN(c1cccc(Cl)c1)c1ccnc(Nc2cc(C(=O)NC3CCC3)cc(N3CCOCC3)c2)n1` [Example 19.13, 3-[[4-[(3-chlorophenyl)-methyl-amino]pyrimidin-2-yl]amino]-N-cyclobutyl-5-morpholin-4-yl-benzamide], the IC50 came to 2.08 µM.

As for `COC(C)CCOc1cc(Nc2nccc(N(C)c3cc(CO)ccc3C)n2)cc(N2CCOCC2)c1` (stereo not drawn) [Example 17.6, [3-[[2-[[3-(3-methoxybutoxy)-5-morpholin-4-yl-phenyl]amino]pyrimidin-4-yl]-methyl-amino]-4-methyl-phenyl]methanol], the IC50 was found to be 1.21 µM. The result for `COCCN(C)C(=O)c1cc(Nc2nccc(N(C)c3cccc(Cl)c3)n2)cc(N2CCOCC2)c1` [Example 19.3, 3-[[4-[(3-chlorophenyl)-methyl-amino]pyrimidin-2-yl]amino]-N-(2-methoxyethyl)-N-methyl-5-morpholin-4-yl-benzamide] reads 0.571 µM. On to `CCN(C)C(=O)c1cc(Nc2nccc(N(C)c3cccc(Cl)c3)n2)cc(N2CCOCC2)c1` [Example 19.7, 3-[[4-[(3-chlorophenyl)-methyl-amino]pyrimidin-2-yl]amino]-N-ethyl-N-methyl-5-morpholin-4-yl-benzamide], for which the IC50 stood at 0.648 µM. Regarding `CN(c1ccnc(Nc2cc(N3CCOCC3)cc(N3CCOCC3)c2)n1)c1cccc(F)c1F` [Example 14, N′-(2,3-difluorophenyl)-N-(3,5-dimorpholin-4-ylphenyl)-N′-methyl-pyrimidine-2,4-diamine], the IC50 amounted to 0.37 µM. Next, `CN(c1cccc(Cl)c1)c1ccnc(Nc2cc(C(=O)NC3CCOCC3)cc(N3CCOCC3)c2)n1` [Example 19.24, 3-[[4-[(3-chlorophenyl)-methylamino]pyrimi-din-2-yl]amino]-5-morpholin-4-yl-N-(oxan-4-yl)benzamide]: 1 µM; `COc1ccc(C)c(N(CCO)c2ccnc(Nc3cc(N4CCOCC4)cc(N4CCOCC4)c3)n2)c1` [Example 22.4, 2-[[2-[(3,5-dimorpholin-4-ylphenyl)amino]pyrimidin-4-yl]-(5-methoxy-2-methyl-phenyl)amino]ethanol]: 0.802 µM. For the compound `Cc1cc(C)c(N(C)c2ccnc(Nc3cc(N4CCOCC4)cc(N4CCOCC4)c3)n2)c(C)c1` [Example 10.13, N-(3,5-dimorpholin-4-ylphenyl)-N′-methyl-N′-(2,4,6-trimethylphenyl)pyrimidine-2,4-diamine], the IC50 amounted to 0.811 µM. On to `CN(c1ccnc(Nc2cc(N3CCOCC3)cc(N3CCOCC3)c2)n1)c1cc(CO)ccc1F` [Example 25.3, (3-((2-(3,5-dimorpholinophenylamino)pyrimidin-4-yl)(methyl)amino)-4-fluorophenyl)methanol], for which the IC50 was 0.0115 µM. The result for `CN(c1ccnc(Nc2cc(N3CCOCC3)cc(N3CCOCC3)c2)n1)c1cccc(Cl)c1C#N` [Example 15.6, 2-chloro-6-[[2-[(3,5-dimorpholin-4-ylphenyl)amino]pyrimidin-4-yl]-methyl-amino]benzonitrile] reads 0.417 µM.
